Measured values from ChEMBL document CHEMBL5518167, “Degradation of Polo-like Kinase 1 by the Novel Poly-Arginine N-Degron Pathway PROTAC Regulates Tumor Growth in Nonsmall Cell Lung Cancer” (J Med Chem, 2024).
Activity calls are given as the source filed them. No cut-off for these calls is given here. Where a SMILES comes first, the peptide text is derived from it. Bridges are numbered along the chain shown (N, C = ends). [ ]: non-standard residue; d: D form. His(π-(CH2)8Ph) = N[C@@H](Cc1cncn1CCCCCCCCc1ccccc1)C(=O)O; pT = C[C@@H](OP(=O)(O)O)[C@H](N)C(=O)O; Ahx = NCCCCCC(=O)O

How the values were obtained:
HeLa [1] = experiment: Cytotoxicity against human HeLa cells incubated for 24 hrs by MTT assay; type: functional, cell-based
A549 [2] = experiment: Cytotoxicity against human A549 cells incubated for 24 hrs by MTT assay; type: functional, cell-based; conditions: A549, 24 h
PC-9 [3] = experiment: Cytotoxicity against human PC-9 cells incubated for 24 hrs by MTT assay; type: functional, cell-based; conditions: PC-9, 24 h
[4] = biological target: E3 ubiquitin-protein ligase UBR1 (Homo sapiens) (UniProt Q8IWV7); experiment: Binding affinity to UBR1 (unknown origin) expressed in HEK293T cells incubated for 3 hrs by pull-down assay; type: cell-based
Chain of E3 ubiquitin-protein ligase UBR1 (Homo sapiens) (Q8IWV7 whole entry): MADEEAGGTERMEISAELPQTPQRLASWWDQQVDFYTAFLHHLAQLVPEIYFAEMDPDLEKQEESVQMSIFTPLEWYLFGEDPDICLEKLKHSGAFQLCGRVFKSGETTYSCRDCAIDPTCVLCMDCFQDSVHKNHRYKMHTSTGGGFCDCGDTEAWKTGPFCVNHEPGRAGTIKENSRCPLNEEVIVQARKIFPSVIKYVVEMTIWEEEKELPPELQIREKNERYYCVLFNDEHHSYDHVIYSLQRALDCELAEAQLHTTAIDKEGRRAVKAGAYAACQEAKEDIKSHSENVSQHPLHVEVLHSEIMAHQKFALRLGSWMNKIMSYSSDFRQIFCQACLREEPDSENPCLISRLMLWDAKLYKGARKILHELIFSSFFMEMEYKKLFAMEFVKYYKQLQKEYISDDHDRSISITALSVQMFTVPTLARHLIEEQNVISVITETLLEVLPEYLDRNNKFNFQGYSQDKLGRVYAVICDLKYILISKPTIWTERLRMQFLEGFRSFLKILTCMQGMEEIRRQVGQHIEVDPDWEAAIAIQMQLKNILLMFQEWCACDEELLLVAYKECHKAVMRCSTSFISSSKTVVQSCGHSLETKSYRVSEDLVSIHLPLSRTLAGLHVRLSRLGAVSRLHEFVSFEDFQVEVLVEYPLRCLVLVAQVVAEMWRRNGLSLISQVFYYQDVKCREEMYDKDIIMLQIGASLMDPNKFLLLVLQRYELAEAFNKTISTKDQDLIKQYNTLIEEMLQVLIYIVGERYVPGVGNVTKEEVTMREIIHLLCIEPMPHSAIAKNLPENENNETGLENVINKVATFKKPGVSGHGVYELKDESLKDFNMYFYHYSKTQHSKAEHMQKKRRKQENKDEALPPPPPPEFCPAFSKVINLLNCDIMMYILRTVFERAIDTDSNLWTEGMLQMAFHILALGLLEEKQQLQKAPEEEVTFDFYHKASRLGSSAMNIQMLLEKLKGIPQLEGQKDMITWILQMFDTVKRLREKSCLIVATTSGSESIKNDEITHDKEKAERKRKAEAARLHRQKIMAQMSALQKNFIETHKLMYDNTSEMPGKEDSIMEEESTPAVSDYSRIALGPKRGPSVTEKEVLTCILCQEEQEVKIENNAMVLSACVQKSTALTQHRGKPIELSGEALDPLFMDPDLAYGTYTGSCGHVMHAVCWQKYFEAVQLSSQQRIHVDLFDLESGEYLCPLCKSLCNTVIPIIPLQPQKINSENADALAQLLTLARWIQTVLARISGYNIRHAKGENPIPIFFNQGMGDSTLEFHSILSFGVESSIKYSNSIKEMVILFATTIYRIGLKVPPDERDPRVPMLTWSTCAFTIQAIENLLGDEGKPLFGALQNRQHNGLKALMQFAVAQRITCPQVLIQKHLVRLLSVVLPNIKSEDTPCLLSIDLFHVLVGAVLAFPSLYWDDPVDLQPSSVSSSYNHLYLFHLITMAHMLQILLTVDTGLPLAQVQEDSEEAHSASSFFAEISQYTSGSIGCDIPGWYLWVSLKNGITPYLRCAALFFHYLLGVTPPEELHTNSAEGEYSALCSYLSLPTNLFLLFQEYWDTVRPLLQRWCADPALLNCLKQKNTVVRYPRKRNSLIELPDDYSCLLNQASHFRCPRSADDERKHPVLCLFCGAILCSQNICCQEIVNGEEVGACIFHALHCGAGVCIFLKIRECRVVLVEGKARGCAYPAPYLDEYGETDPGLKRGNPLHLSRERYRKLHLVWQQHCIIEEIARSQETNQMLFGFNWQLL

[5] = biological target: Serine/threonine-protein kinase PLK1 (Homo sapiens, UniProt P53350); experiment: Binding affinity to PLK1 PBD (unknown origin) by ITC method
Chain of Serine/threonine-protein kinase PLK1 (P53350 whole entry): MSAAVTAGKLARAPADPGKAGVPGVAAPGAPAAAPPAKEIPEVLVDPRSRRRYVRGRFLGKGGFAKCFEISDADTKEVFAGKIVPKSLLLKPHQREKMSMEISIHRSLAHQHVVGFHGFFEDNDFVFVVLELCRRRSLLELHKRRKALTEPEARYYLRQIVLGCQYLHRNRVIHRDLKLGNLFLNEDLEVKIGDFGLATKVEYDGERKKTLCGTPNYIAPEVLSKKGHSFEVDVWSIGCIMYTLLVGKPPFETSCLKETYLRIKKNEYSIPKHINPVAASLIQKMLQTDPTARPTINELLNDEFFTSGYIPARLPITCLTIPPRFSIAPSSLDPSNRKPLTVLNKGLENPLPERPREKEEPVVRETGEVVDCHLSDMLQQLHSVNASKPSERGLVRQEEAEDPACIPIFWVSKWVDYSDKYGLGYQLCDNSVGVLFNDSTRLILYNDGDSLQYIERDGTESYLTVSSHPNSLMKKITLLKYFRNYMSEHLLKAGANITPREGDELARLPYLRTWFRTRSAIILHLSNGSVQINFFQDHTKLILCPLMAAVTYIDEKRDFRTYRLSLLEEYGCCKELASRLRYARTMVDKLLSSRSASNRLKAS

HeLa [6] = experiment: Cytotoxicity against human HeLa cells assessed as change in morphology at 18 uM incubated for 24 hrs by phase contrast microscopic assay; type: functional, cell-based
A549 [7] = experiment: Cytotoxicity against human A549 cells assessed as change in morphology at 25 uM incubated for 24 hrs by phase contrast microscopic assay; type: functional, cell-based
PC-9 [8] = experiment: Cytotoxicity against human PC-9 cells assessed as change in morphology at 25 uM incubated for 24 hrs by phase contrast microscopic assay; type: functional, cell-based
NCI-H1975 [9] = experiment: Cytotoxicity against human NCI-H1975 cells assessed as change in morphology at 25 uM incubated for 24 hrs by phase contrast microscopic assay; type: functional, cell-based
NCI-H1975 [10] = experiment: Induction of cell cycle arrest in human NCI-H1975 cells assessed as G2/M phase arrest at 10 uM incubated for 24 hrs by PI staining based flow cytometry analysis; type: functional
PC-9 [11] = experiment: Induction of cell cycle arrest in human PC-9 cells assessed as G2/M phase arrest at 10 uM incubated for 24 hrs by PI staining based flow cytometry analysis; type: functional
HeLa [12] = experiment: Induction of cell cycle arrest in human HeLa cells assessed as delay in S phase progression at 10 uM incubated for 24 hrs by PI staining based flow cytometry analysis; type: functional
A549 [13] = experiment: Induction of cell cycle arrest in human A549 cells assessed as delay in S phase progression at 10 uM incubated for 24 hrs by PI staining based flow cytometry analysis; type: functional
PC-9 [14] = experiment: Induction of cell cycle arrest in human PC-9 cells assessed as delay in S phase progression at 10 uM incubated for 24 hrs by PI staining based flow cytometry analysis; type: functional
HeLa [15] = experiment: Induction of cell cycle arrest in human HeLa cells assessed as fold increase in S phase population at 10 uM incubated for 24 hrs by PI staining based flow cytometry analysis; type: functional
PC-9 [16] = experiment: Induction of cell cycle arrest in human PC-9 cells assessed as fold increase in S phase population at 10 uM incubated for 24 hrs by PI staining based flow cytometry analysis; type: functional
A549 [17] = experiment: Induction of apoptosis in human A549 cells at 25 uM incubated for 24 hrs by fluorescence microscopic analysis; type: functional, cell-based
HeLa [18] = experiment: Antitumor activity against human HeLa cells xenografted in iv dosed nude mouse assessed as reduction in tumor size; type: functional, organism-based; conditions: dose 10.0 mg/kg
A549 [19] = experiment: Antitumor activity against human A549 cells xenografted in nude mouse assessed as fold reduction in tumor size at 10 mg/kg, iv; type: functional
HeLa [20] = experiment: Antitumor activity against human HeLa cells xenografted in nude mouse assessed as fold reduction in tumor size at 10 mg/kg, iv; type: functional
[21] = In vivo induction of PLK1 degradation in nude mouse xenografted with human NCI-H1975 cells assessed as reduction in PLK1 protein expression at 10 mg/kg, iv administered for every 3 days by Western blotting analysis; type: functional; design: scale not given: the % may be the effect or the level left
[22] = Protac activity at UBR/PLK1 in human HeLa cells assessed as PLK1 degradation incubated for 24 hrs by immunoblotting analysis
UBR/PLK1 (Homo sapiens) [23] = experiment: as above; conditions: dose 25-100 µM
[24] = Protac activity at UBR/PLK1 in human A549 cells assessed as PLK1 degradation incubated for 24 hrs by immunoblotting analysis
UBR/PLK1 (Homo sapiens) [25] = experiment: as above; conditions: dose 5-25 µM
[26] = Protac activity at UBR/PLK1 in human PC-9 cells assessed as PLK1 degradation incubated for 24 hrs by immunoblotting analysis
UBR/PLK1 (Homo sapiens) [27] = experiment: as above; conditions: dose 5-25 µM
[28] = Protac activity at UBR/PLK1 in human NCI-H1975 cells assessed as PLK1 degradation incubated for 24 hrs by immunoblotting analysis
UBR/PLK1 (Homo sapiens) [29] = experiment: as above; conditions: dose 5-25 µM
UBR/PLK1 (Homo sapiens) [30] = experiment: Protac activity at UBR/PLK1 in human NCI-H1975 cells assessed as PLK1 degradation at 30 uM incubated for 24 hrs by immunoblotting analysis
UBR/PLK1 (Homo sapiens) [31] = experiment: Protac activity at UBR/PLK1 in human PC-9 cells assessed as PLK1 degradation at 10 uM incubated for 2 to 24 hrs by immunoblotting analysis; conditions: time 2-24 hrs
UBR/PLK1 (Homo sapiens) [32] = experiment: Protac activity at UBR/PLK1 in human A549 cells assessed as PLK1 degradation at 25 uM incubated for 2 to 24 hrs by immunoblotting analysis; conditions: time 2-24 hrs
UBR/PLK1 (Homo sapiens) [33] = experiment: Protac activity at UBR/PLK1 in human HeLa cells assessed as PLK1 degradation at 0.3 to 3 uM preincubated for 24 hrs followed by MG132 addition for 8 hrs by immunoblotting analysis; conditions: dose 0.3-3 µM
UBR/PLK1 (Homo sapiens) [34] = experiment: Protac activity at UBR/PLK1 in human NCI-H1975 cells assessed as PLK1 degradation at 5 to 30 uM preincubated for 24 hrs followed by MG132 addition for 8 hrs by immunoblotting analysis; conditions: dose 5-30 µM, time 32.0 hrs
UBR/PLK1 (Homo sapiens) [35] = experiment: Protac activity at UBR/PLK1 in human HeLa cells assessed as PLK1 degradation at 4 uM preincubated for 24 hrs followed by compound washout and measured after 24 to 48 hrs by immunoblotting analysis

Work on `C[C@@H](OP(=O)(O)O)[C@@H]1NC(=O)[C@H](Cc2cncn2CCCCCCCCc2ccccc2)NC(=O)[C@@H](NC(=O)CCCCCNC(=O)[C@H](CCCNC(=N)N)NC(=O)[C@H](CCCNC(=N)N)NC(=O)[C@H](CCCNC(=N)N)NC(=O)[C@H](CCCNC(=N)N)NC(=O)[C@H](CCCNC(=N)N)NC(=O)[C@H](CCCNC(=N)N)NC(=O)[C@H](CCCNC(=N)N)NC(=O)[C@H](CCCNC(=N)N)NC(=O)[C@H](CCCNC(=N)N)NC(=O)[C@H](CCCNC(=N)N)NC(=O)[C@H](CCCNC(=N)N)NC(=O)[C@@H](N)CCCNC(=N)N)CCC(=O)NCCCC[C@@H](C(N)=O)NC1=O` (H-RRRRRRRRRRRR[Ahx]E[His(π-(CH2)8Ph)][pT]K-NH2; lactam 14-17) yielded an IC50 (HeLa [1]) of 18 µM, an IC50 (A549 [2]) of 20.6 µM and an IC50 (PC-9 [3]) of 17.1 µM. For the same molecule, the Activity [4] was “Active”, the Kd [5] was 3.48 µM and the Activity (HeLa [6]) was “Active”. The Activity (A549 [7]) was “Active”, the Activity (PC-9 [8]) was “Active” and the Activity (NCI-H1975 [9]) was “Active”. For the same molecule, the Activity (NCI-H1975 [10]) was 11%, the Activity (PC-9 [11]) was 9% and the Activity (HeLa [12]) was “Active”. For the same molecule, the Activity (A549 [13]) was “Active”, the Activity (PC-9 [14]) was “Active” and the Activity (HeLa [15]) was “Active”. The Activity (PC-9 [16]) was “Active”, the Activity (A549 [17]) was “Active” and the Activity (HeLa [18]) was “Dose-Dependent Effect”. For the same molecule, the “fold change (FC)” value (A549 [19]) was 6.3, the “fold change (FC)” value (HeLa [20]) was 3.4 and the Activity [21] was >60%. The DC50 [22] was 2.5 µM, the Activity (UBR/PLK1 (Homo sapiens) [23]) was “Dose-Dependent Effect” and the DC50 [24] was 27 µM. The Activity (UBR/PLK1 (Homo sapiens) [25]) was “Dose-Dependent Effect”, the DC50 [26] was 12 µM and the Activity (UBR/PLK1 (Homo sapiens) [27]) was “Dose-Dependent Effect”. The DC50 [28] was 12 µM, the Activity (UBR/PLK1 (Homo sapiens) [29]) was “Dose-Dependent Effect” and the Emax (UBR/PLK1 (Homo sapiens) [30]) was 95%. The Activity (UBR/PLK1 (Homo sapiens) [31]) was “Active”, the Activity (UBR/PLK1 (Homo sapiens) [32]) was “Active” and the Activity (UBR/PLK1 (Homo sapiens) [33]) was “inactive”. The Activity (UBR/PLK1 (Homo sapiens) [34]) was “inactive” and the Activity (UBR/PLK1 (Homo sapiens) [35]) was “Active”.
